Source: US8569302B2, “Inhibitors of flaviviridae viruses” (Gilead Sciences, Inc., priority 2009, dated 2013)

Tested on: human hepatoma Huh-7 cell line harboring a HCV replicon
Assay: HCV replicon assay (inhibition of viral replication, luciferase readout)
Type: cell-based
Conditions: Hepatitis C virus, 72 h, Huh-7 HCV replicon cells, 3 days incubation
Procedure: The anti-HCV activity of the compounds of this invention was tested in a human hepatoma Huh-7 cell line harboring a HCV replicon. The assay comprised the following steps:
Step 1: Compound Preparation and Serial Dilution.
Serial dilution was performed in 100% DMSO in a 384-well plate. A solution containing a compound at 225-fold concentration of the starting final serial dilution concentration was prepared in 100% DMSO and 15 μL added to the pre-specified wells in column 3 or 13 of a polypropylene 384-well plate. The rest of the 384-well plate was filled with 10 μL 100% DMSO except for columns 23 and 24, where 10 μL of 500 μM a HCV protease inhibitor (ITMN-191) in 100% DMSO was added. The HCV protease inhibitor was used a control of 100% inhibition of HCV replication. The plate was then placed on a Biomek FX Workstation to start the serial dilution. The serial dilution was performed for ten cycles of 3-fold dilution from column 3 to 12 or from column 13 to 22.
Step 2: Cell Culture Plate Preparation and Compound Addition
To each well of a black polypropylene 384-well plate, 90 μL of cell media containing 1600 suspended Huh-7 HCV replicon cells was added with a Biotek uFlow Workstation. A volume of 0.4 μL of the compound solution was transferred from the serial dilution plate to the cell culture plate on a Biomek FX Workstation. The DMSO concentration in the final assay condition was 0.44%. The plates were incubated for 3 days at 37° C. with 5% CO2 and 85% humidity.
Step 3: Detection of Cytotoxicity and Inhibition of Viral Replication
a) Assessment of cytotoxicity: The media in the 384-well cell culture plate was aspirated with a Biotek EL405 plate-washer. A volume of 50 μL of a solution containing 400 nM Calcein AM in 100% PBS was added to each well of the plate with a Biotek uFlow Workstation. The plate was incubated for 30 minutes at room temperature before the fluorescence signal ([…]) was measured with a Perkin Elmer Envision Plate Reader.
b) Assessment of inhibition of viral replication: The calcein-PBS solution in the 384-well cell culture plate was aspirated with a Biotek EL405 plate-washer. A volume of 20 μL of Dual-Glo luciferase buffer (Promega, Dual-Glo Luciferase Assay Reagent, cat. #E298B) was added to each well of the plate with a Biotek uFlow Workstation. The plate was incubated for 10 minutes at room temperature. A volume of 20 μL of a solution containing 1:100 mixture of Dual-Glo Stop & Glo substrate (Promega, Dual-Glo Luciferase Assay Reagent, cat. #E313B) and Dual-Glo Stop & Glo buffer (Promega, Dual-Glo Luciferase Assay Reagent, cat. #E314B) was then added to each well of the plate with a Biotek uFlow Workstation. The plate was incubated at room temperature for 10 minutes before the luminescence signal was measured with a Perkin Elmer Envision Plate Reader.
The percent cytotoxicity was determined by calcein AM conversion to fluorescent product. The average fluorescent signal from the DMSO control wells was defined as 100% nontoxic. The individual fluorescent signal from testing compound treated well was divided by the average signal from DMSO control wells and then multiplied by 100% to get the percent viability. The percent anti-HCV replication activity was determined by the luminescence signal from the testing well compared to DMSO control wells. The background signal was determined by the average luminescence signal from the HCV protease inhibitor treated wells and was subtracted from the signal from the testing wells as well as the DMSO control wells. Following 3-fold serial dilutions, the EC50 and CC50 values were calculated by fitting % inhibition at each concentration to the following equation: % inhibition=100%/[EC50/[I])^b+1]
Where b is Hill's coefficient. See, for reference, Hill, A. V., The Possible Effects of the Aggregation of the Molecules of Hæmoglobin on its Dissociation Curves, J. Physiol. 40: iv-vii. (1910). […]

`Cc1ccc(O[C@H]2CC[C@H](N(c3cc(C#CC(C)(C)C)sc3C(=O)O)C(=O)[C@H]3CC[C@H](C)CC3)CC2)nc1` [Compound 11, 5-(3,3-Dimethyl-but-1-ynyl)-3-{(trans-4-methyl-cyclohexanecarbonyl)-[trans-4-(5-methyl-pyridin-2-yloxy)-cyclohexyl]-amino}-thiophene-2-carboxylic acid] was tested. Which inhibition at 2 µM did it give?
Its inhibition at 2 µM is 99.9%.

For `Cc1cccnc1O[C@H]1CC[C@H](N(c2cc(C#CC(C)(C)C)sc2C(=O)O)C(=O)[C@H]2CC[C@H](C)CC2)CC1` [Compound 12, 5-(3,3-Dimethyl-but-1-ynyl)-3-{(trans-4-methyl-cyclohexanecarbonyl)-[trans-4-(3-methyl-pyridin-2-yloxy)-cyclohexyl]-amino}-thiophene-2-carboxylic acid], which inhibition at 2 µM is on record?
The inhibition at 2 µM was 99.7%.

With `CC(C)(C)C#Cc1cc(N(C(=O)[C@H]2CC[C@H](C)CC2)[C@H]2CC[C@H](Oc3cccc(C#N)n3)CC2)c(C(=O)O)s1` [Compound 13, 3-[[trans-4-(6-Cyano-pyridin-2-yloxy)-cyclohexyl]-(trans-4-methyl-cyclohexanecarbonyl)-amino]-5-(3,3-dimethyl-but-1-ynyl)-thiophene-2-carboxylic acid] as the compound, how does the inhibition at 2 µM read?
Its inhibition at 2 µM is 99.3%.

For `CC(C)(C)C#Cc1cc(N(C(=O)[C@H]2CC[C@H](C)CC2)[C@H]2CC[C@H](Oc3ccc(=O)[nH]n3)CC2)c(C(=O)O)s1` [Compound 14, 5-(3,3-Dimethyl-but-1-ynyl)-3-{(trans-4-methyl-cyclohexanecarbonyl)-[trans-4-(6-oxo-1,6-dihydropyridazin-3-yloxy)-cyclohexyl]-amino}-thiophene-2-carboxylic acid], which inhibition at 2 µM is on record?
The inhibition at 2 µM was 100%.

`CC(C)(C)C#Cc1cc(N(C(=O)[C@H]2CC[C@H](C)CC2)[C@H]2CC[C@H](Oc3nccs3)CC2)c(C(=O)O)s1` [Compound 15, 5-(3,3-Dimethyl-but-1-ynyl)-3-{(trans-4-methyl-cyclohexanecarbonyl)-[trans-4-(thiazol-2-yloxy)-cyclohexyl]-amino}-thiophene-2-carboxylic acid] was tested. Which inhibition at 2 µM did it give?
The inhibition at 2 µM was 99.6%.

How did the inhibition at 2 µM turn out when `CC(C)(C)C#Cc1cc(N(C(=O)[C@H]2CC[C@H](C)CC2)[C@H]2CC[C@H](Oc3ncccc3C(F)(F)F)CC2)c(C(=O)O)s1` [Compound 16, 5-(3,3-Dimethyl-but-1-ynyl)-3-{(trans-4-methyl-cyclohexanecarbonyl)-[trans-4-(3-trifluoromethyl-pyridin-2-yloxy)-cyclohexyl]-amino}-thiophene-2-carboxylic acid] was run?
Its inhibition at 2 µM is 75.1%.

For `CC(C)(C)C#Cc1cc(N(C(=O)[C@H]2CC[C@H](C)CC2)[C@H]2CC[C@H](Oc3cccc(C(F)(F)F)n3)CC2)c(C(=O)O)s1` [Compound 17, 5-(3,3-Dimethyl-but-1-ynyl)-3-{(trans-4-methyl-cyclohexanecarbonyl)-[trans-4-(6-trifluoromethyl-pyridin-2-yloxy)-cyclohexyl]-amino}-thiophene-2-carboxylic acid], which inhibition at 2 µM is on record?
The inhibition at 2 µM was 67.6%.

`CC(C)(C)C#Cc1cc(N(C(=O)[C@H]2CC[C@H](C)CC2)[C@H]2C[C@@H](Oc3cccnc3)C2)c(C(=O)O)s1` [Compound 20, 5-(3,3-Dimethyl-but-1-ynyl)-3-{(trans-4-methyl-cyclohexanecarbonyl)-[cis-3-(pyridin-3-yloxy)-cyclobutyl]-amino}-thiophene-2-carboxylic acid] was tested. Which inhibition at 2 µM did it give?
The inhibition at 2 µM was 99.8%.

Which inhibition at 2 µM does the source give for `CC(C)(C)C#Cc1cc(N(C(=O)[C@H]2CC[C@H](C)CC2)[C@H]2C[C@H](Oc3cccnc3)C2)c(C(=O)O)s1` [Compound 21, 5-(3,3-Dimethyl-but-1-ynyl)-3-[(trans-4-methyl-cyclohexanecarbonyl)-{trans-3-(pyridin-3-yloxy)-cyclobutyl]-amino}-thiophene-2-carboxylic acid] here?
Its inhibition at 2 µM is 98.8%.

Which inhibition at 2 µM does the source give for `CC(C)(C)C#Cc1cc(N(C(=O)[C@H]2CC[C@H](C)CC2)[C@H]2C[C@@H](Oc3ncccn3)C2)c(C(=O)O)s1` [Compound 22, 5-(3,3-Dimethyl-but-1-ynyl)-3-{(trans-4-methyl-cyclohexanecarbonyl)-[cis-3-(pyrimidin-2-yloxy)-cyclobutyl]-amino}-thiophene-2-carboxylic acid] here?
The inhibition at 2 µM was 96.2%.
